Settings: 25° C., relative humidity 75%, weight change measured until day 7; numerical values only in FIG. 1
Experimental: A saturated aqueous solution of sodium chloride (approximately 200 mL) was allowed to stand in a plastic desiccator at 25° C. for 24 hours (relative humidity was adjusted to 75%). […] The weighing vessel was allowed to stand in the desiccator with the humidity adjusted, and the weight change of the weighing vessel was measured over the course of time.
The hygroscopicity (hygroscopic degree) was calculated using the following formula (1) on the basis of the weight change at each measuring time. The measurement of the weight change of the weighing vessel was continued until day 7.
Hygroscopic rate (%)=W3−W2/W2−W1×100 (1)
W1=Weight (g) of a weighing vessel
W2=Weight (g) of a weighing vessel filled with crystals before the test
W3=Weight (g) of a weighing vessel filled with crystals after the test

With `NCCC[C@H](N)C(=O)O.NCCC[C@H](N)C(=O)O.O=C(O)CC(O)(CC(=O)O)C(=O)O` [Example 1, L-ornithine-½ citric acid salt] the “Hygroscopicity (hygroscopic rate)” value was “did not show notable hygroscopicity”.

— patent US20080015386A1, “Crystal of L-Ornithine-Citric Acid Salt” (KYOWA HAKKO KOGYO CO., LTD., priority 2004, published 2008)
